The source of these data is US20060293223A1 (Eli Lilly and Company Patent Division, priority 2003, published 2006).

Positions of bridges follow the written chain, without caps; N, C: chain ends. Non-standard residues stand in square brackets, D forms with d. hCys = N[C@@H](CCS)C(=O)O
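Note: ratio of EC50 values obtained at MC1 versus MC4 receptors, with MC1 potency measured by luciferase reporter activity in stably transfected cells expressing human MC1.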

This assay has as its system MC1/MC4. The conditions noted are these: ratio MC1/MC4.
As to “3-(4-hydroxyphenyl)propionyl-Arg-cyclo[Cys-Glu-His-D-Phe-Arg-Trp-Cys]-NH2 [Compound 66]”, the MC1/MC4 selectivity stood at 13.23.

For the substance “3-(4-methylbenzoyl)propionyl-Arg-cyclo[Cys-Glu-His-D-Phe-Arg-Trp-Cys]-NH2 [Compound 67]”, the MC1/MC4 selectivity was 9.15.

Turning to “3-guanidinopropionyl-cyclo[Cys-Glu-His-D-Phe-Arg-Trp-Cys]-NH2 [Compound 40]”, the MC1/MC4 selectivity worked out at 25.92.

“3-guanidinopropionyl-cyclo[hCys-His-D-Phe-Arg-Trp-Cys]-NH2 [Compound 148]”: the MC1/MC4 selectivity was found to be 51.98.

In the case of “4-guanidinobutyryl-cyclo[Cys-Glu-His-D-Phe-Arg-Trp-Cys]-NH2 [Compound 41]”, the MC1/MC4 selectivity is 58.47.

With “4-phenylbutyryl-cyclo[hCys-His-D-Phe-Arg-Trp-Cys]-NH2 [Compound 147]”, the MC1/MC4 selectivity turned out to be 0.86.

For “4-phenylbutyryl-cyclo[hCys-His-D-Phe-Arg-Trp-penicillamine]-NH2 [Compound 174]”, the MC1/MC4 selectivity is listed as 4.98.

As to “5-guanidinovaleryl-cyclo[Cys-Glu-His-D-Phe-Arg-Trp-Cys]-NH2 [Compound 42]”, the MC1/MC4 selectivity stood at 44.63.

Take “5-guanidinovaleryl-cyclo[hCys-His-D-Phe-Arg-Trp-Cys]-NH2 [Compound 149]”: the MC1/MC4 selectivity is on record as 51.85.

As for “Ac-Arg-cyclo[Cys-Cya-His-D-Phe-Arg-Trp-Cys]-NH2 [Compound 26]”, the MC1/MC4 selectivity is listed as 38.90.

With “Ac-Arg-cyclo[Cys-Glu-(1-Me-His)-(4-Cl-D-Phe)-Arg-Trp-Cys]-NH2 [Compound 87]”, the MC1/MC4 selectivity is on record as 316.25.

Consider “Ac-Arg-cyclo[Cys-Glu-(1-Me-His)-D-Phe-Arg-Trp-Cys]-NH2 [Compound 51]”, for which the MC1/MC4 selectivity was 76.75.

In the case of “Ac-Arg-cyclo[Cys-Glu-His-(4-Cl-D-Phe)-Arg-Trp-Cys]-NH2 [Compound 50]”, the MC1/MC4 selectivity was 36.10.

In the case of “Ac-Arg-cyclo[Cys-Glu-His-D-Phe-Arg-Trp-Cys]-NH2 [Compound 48]”, the MC1/MC4 selectivity is 26.80.

Consider “Ac-Arg-cyclo[Cys-Glu-His-D-Phe-Arg-Trp-Cys]-OH [Compound 49]”, for which the MC1/MC4 selectivity turned out to be 35.35.

Turning to “Ac-Arg-cyclo[Cys-His-(4-Cl-D-Phe)-Arg-Trp-hCys]-NH2 [Compound 191]”, the MC1/MC4 selectivity is on record as 127.33.

With “Ac-Arg-cyclo[Cys-His-(4-F-D-Phe)-Arg-Trp-hCys]-NH2 [Compound 190]”, the MC1/MC4 selectivity turned out to be 367.10.

On to “Ac-CDH[dF]RWC-NH2 (disulfide 1-7) [Compound 6]”, for which the MC1/MC4 selectivity stood at 35.74.

With “Ac-CEH[dF]RWCKP-NH2 (disulfide 1-7) [Compound 35]”, the MC1/MC4 selectivity came out at 1.17.

For the substance “Ac-CEH[dF]RWCSP-NH2 (disulfide 1-7) [Compound 36]”, the MC1/MC4 selectivity is reported as 1.22.

As to “Ac-CH[dF]RWC-NH2 (disulfide 1-6) [Compound 1]”, the MC1/MC4 selectivity came out at 3.91.

In the case of “Ac-CKH[dF]RWC-NH2 (disulfide 1-7) [Compound 16]”, the MC1/MC4 selectivity stood at 2.94.

With “Ac-CLH[dF]RWC-NH2 (disulfide 1-7) [Compound 15]”, the MC1/MC4 selectivity was 14.75.

On to “Ac-CQH[dF]RWC-NH2 (disulfide 1-7) [Compound 8]”, for which the MC1/MC4 selectivity amounted to 3.33.

On to “Ac-Cit-cyclo[Cys-Glu-(1-Me-His)-D-Phe-Arg-Trp-Cys]-NH2 [Compound 56]”, for which the MC1/MC4 selectivity is on record as 21.38.

For “Ac-Cit-cyclo[Cys-Glu-His-D-Phe-Arg-Trp-Cys]-NH2 [Compound 55]”, the MC1/MC4 selectivity is reported as 28.81.

For “Ac-D-Arg-cyclo[Cys-Cya-His-D-Phe-Arg-Trp-Cys]-NH2 [Compound 27]”, the MC1/MC4 selectivity is listed as 30.11.

Turning to “Ac-D-Arg-cyclo[Cys-Glu-His-D-Phe-Arg-Trp-Cys]-NH2 [Compound 52]”, the MC1/MC4 selectivity is listed as 30.54.

In the case of “Ac-KCEH[dF]RWC-NH2 (disulfide 2-8) [Compound 58]”, the MC1/MC4 selectivity came out at 31.69.

With “Ac-LCEH[dF]RWC-NH2 (disulfide 2-8) [Compound 57]”, the MC1/MC4 selectivity amounted to 29.00.

As for “Ac-Lys(ipr)-cyclo[Cys-Glu-His-D-Phe-Arg-Trp-Cys]-NH2 [Compound 59]”, the MC1/MC4 selectivity was determined as 20.92.

On to “Ac-Orn-cyclo[Cys-Glu-His-D-Phe-Arg-Trp-Cys]-NH2 [Compound 62]”, for which the MC1/MC4 selectivity stood at 46.91.

Regarding “Ac-RCH[dF]RW[hCys]-NH2 (disulfide 2-7) [Compound 189]”, the MC1/MC4 selectivity turned out to be 23.31.

Turning to “Ac-R[hCys]H[dF]RWC-NH2 (disulfide 2-7) [Compound 158]”, the MC1/MC4 selectivity was 50.25.

“Ac-R[hCys]H[dF]RWC-OH (disulfide 2-7) [Compound 159]”: the MC1/MC4 selectivity stood at 49.41.

In the case of “Ac-Tyr-(1-β-hArg)-cyclo[Cys-Glu-His-D-Phe-Arg-Trp-Cys]-NH2 [Compound 127]”, the MC1/MC4 selectivity is on record as 20.25.

As to “Ac-Tyr-Arg-cyclo[Cys-Cya-His-D-Phe-Arg-Trp-Cys]-NH2 [Compound 28]”, the MC1/MC4 selectivity turned out to be 26.35.

Consider “Ac-Tyr-Arg-cyclo[Cys-Glu-(1-Bom-His)-D-Phe-Arg-Trp-Cys]-NH2 [Compound 101]”, for which the MC1/MC4 selectivity is listed as 0.97.

As for “Ac-Tyr-Arg-cyclo[Cys-Glu-(1-Me-D-His)-(4-Br-D-Phe)-Arg-Trp-Cys]-NH2 [Compound 91]”, the MC1/MC4 selectivity came to 21.14.

Take “Ac-Tyr-Arg-cyclo[Cys-Glu-(1-Me-D-His)-(4-Cl-D-Phe)-Arg-Trp-Cys]-NH2 [Compound 88]”: the MC1/MC4 selectivity came out at 9.07.

Regarding “Ac-Tyr-Arg-cyclo[Cys-Glu-(1-Me-D-His)-(4-F-D-Phe)-Arg-Trp-Cys]-NH2 [Compound 85]”, the MC1/MC4 selectivity stood at 2.66.

For the substance “Ac-Tyr-Arg-cyclo[Cys-Glu-(1-Me-D-His)-(4-OMe-D-Phe)-Arg-Trp-Cys]-NH2 [Compound 95]”, the MC1/MC4 selectivity came out at 3.21.

Turning to “Ac-Tyr-Arg-cyclo[Cys-Glu-(1-Me-D-His)-D-Phe-Arg-Trp-Cys]-NH2 [Compound 82]”, the MC1/MC4 selectivity is 1.66.

As for “Ac-Tyr-Arg-cyclo[Cys-Glu-(1-Me-His)-(4-Br-D-Phe)-Arg-Trp-Cys]-NH2 [Compound 90]”, the MC1/MC4 selectivity is reported as 237.22.

“Ac-Tyr-Arg-cyclo[Cys-Glu-(1-Me-His)-(4-F-D-Phe)-Arg-Trp-Cys]-NH2 [Compound 84]”: the MC1/MC4 selectivity was determined as 150.60.

Take “Ac-Tyr-Arg-cyclo[Cys-Glu-(1-Me-His)-(4-OMe-D-Phe)-Arg-Trp-Cys]-NH2 [Compound 94]”: the MC1/MC4 selectivity is listed as 16.97.

“Ac-Tyr-Arg-cyclo[Cys-Glu-(1-Me-His)-D-Phe-Arg-Trp-Cys]-NH2 [Compound 81]”: the MC1/MC4 selectivity came out at 101.69.

For the substance “Ac-Tyr-Arg-cyclo[Cys-Glu-(1-benzyl-D-His)-D-Phe-Arg-Trp-Cys]-NH2 [Compound 100]”, the MC1/MC4 selectivity worked out at 1.67.

As for “Ac-Tyr-Arg-cyclo[Cys-Glu-(1-benzyl-His)-D-Phe-Arg-Trp-Cys]-NH2 [Compound 99]”, the MC1/MC4 selectivity came out at 88.42.

For “Ac-Tyr-Arg-cyclo[Cys-Glu-(1-pyrazolyl-Ala)-D-Phe-Arg-Trp-Cys]-NH2 [Compound 102]”, the MC1/MC4 selectivity came out at 4.76.
